{"source": "patent US20210015881A1", "about": "(priority 2016, published 2021)", "key": {"aconitic arrhythmia": {"tested_on": "aconitic arrhythmia", "conditions": "for effect on baseline heart rate and contraction (intervals R-R, PQ, QT): i.v. at doses that provide antiarrhythmic effect in 50% of rats; for antiarrhythmic activity and range of antiarrhythmic action, comparison: active doses 5-10 minutes prior to i.v. aconitine", "procedure": "The study was conducted in anesthetized white outbred rats. The objective of the experiment was to study the efficiency of intravenous administration of the studied substances and known antiarrhythmic agents in the model of aconitic arrhythmia in anesthetized rats.\nThe studied substances and medicinal products for comparison were administered in active doses 5-10 minutes prior to intravenous administration of aconitine."}, "[1]": {"tested_on": "cardiac arrhythmia caused by barium chloride", "experiment": "Cardiac arrhythmia caused by barium chloride", "type": "in vivo, rats", "procedure": "The study was conducted in 60 white outbred rats. […] Out of 15 control animals, which received barium chloride at a dose of 20 mg/kg, […] of the rats died.\nRhythm disturbances were mostly of a ventricular type, in the form of ventricular bigeminy, trigeminy, group extrasystoles, transient ventricular standstill, flutter and ventricular fibrillation. In addition, various types of conduction disorders and increased ST segment above contours were observed.\nIntravenous administration of the studied substances at doses of 0.05-0.1 mg/kg 10 min prior to the injection of barium chloride prevented the development of arrhythmias in 60-90% of rats. Antiarrhythmic effect of the studied substances combines with antitoxic effect against lethality from barium chloride."}, "corneal reflex": {"tested_on": "corneal reflex", "experiment": "Terminal (topical) anesthesia of the rabbit eye, method of Rainier-Valet", "type": "in vivo, rabbits", "procedure": "The local anesthetic effect of the studied substances was investigated in 10 rabbits. The effect on terminal anesthesia was investigated by the method of Rainier-Valet, by identifying the corneal reflex to mechanical irritation every 5-10 min after instillation of 2 drops of 0.1%-0.25%-0.5% solutions of the studied substances.\n(§1) The time of anesthesia onset, its depth and duration were determined. Activity of the studied substances at topical anesthesia was compared to dicaine; at infiltration anesthesia-to novocaine."}, "[2]": {"tested_on": "threshold of pain irritation", "experiment": "Infiltration anesthesia in rabbits, method of Bullbring-Vida", "type": "in vivo", "conditions": "0.5% solution", "procedure": "The ability of the medicinal product to cause infiltration anesthesia was studied in rabbits by the method of Bullbring-Vida (pain method).\nas §1"}}, "data": [{"smiles": "CCOC(=O)Nc1ccc2c(c1)N(C(=O)CCN1CCOCC1)c1ccccc1S2", "note": "[Etmozin]", "values": [{"measurement": "effect on baseline heart rate and contraction (intervals R-R, PQ, QT)", "setting": "aconitic arrhythmia", "result": "inhibition of the baseline heart rate and contraction"}, {"measurement": "antiarrhythmic activity and range of antiarrhythmic action, comparison", "setting": "aconitic arrhythmia; i.v.", "result": "most efficient among the reference antiarrhythmic agents"}]}, {"smiles": "CCN(CC)CC(=O)Nc1c(C)cccc1C", "note": "[Lidocaine]", "values": [{"measurement": "duration of effect, comparison", "setting": "aconitic arrhythmia; i.v., active doses prior to aconitine", "result": "shortest effect"}]}, {"smiles": "CCN(CC)CCNC(=O)c1ccc(N)cc1", "note": "[Procainamide]", "values": [{"measurement": "antiarrhythmic and antitoxic activity, comparison", "setting": "[1]; barium chloride model of ventricular type arrhythmia", "result": "weakest antiarrhythmic and antitoxic activity"}]}, {"smiles": "C=C[C@H]1C[N@@]2CC[C@H]1C[C@@H]2[C@@H](O)c1ccnc2ccc(OC)cc12", "note": "[Quinidine]", "values": [{"measurement": "effect on baseline heart rate and contraction (intervals R-R, PQ, QT)", "setting": "aconitic arrhythmia", "result": "inhibition of the baseline heart rate and contraction"}, {"measurement": "antiarrhythmic and antitoxic effect compared with substances 1-9 at 0.05 mg/kg and 0.1 mg/kg", "setting": "[1]; 5 mg/kg and 10 mg/kg", "result": "approximately similar"}]}, {"smiles": "COc1ccc(CCN(C)CCCC(C#N)(c2ccc(OC)c(OC)c2)C(C)C)cc1OC", "note": "(centres unmarked) [Verapamil]", "values": [{"measurement": "antiarrhythmic activity and range of antiarrhythmic action, comparison", "setting": "aconitic arrhythmia; i.v.", "result": "least effective"}]}, {"smiles": "CCCCNc1ccc(C(=O)OCCN(C)C)cc1", "note": "[dicaine]", "values": [{"measurement": "average duration of terminal anesthesia of the rabbit eye", "setting": "corneal reflex; 0.1%", "result": 37, "unit": "min"}, {"measurement": "average duration of terminal anesthesia of the rabbit eye", "setting": "corneal reflex; 0.5%", "result": 52, "unit": "min"}, {"measurement": "onset of terminal anesthesia of the rabbit eye", "setting": "corneal reflex; concentrations of 0.1% and 0.5%", "result": "1 to 2", "unit": "min"}]}, {"smiles": "CCN(CC)CCOC(=O)c1ccc(N)cc1", "note": "[novocaine]", "values": [{"measurement": "duration of local anesthetic effect", "setting": "[2]", "result": "about 90 min"}]}]}
